Experimental data taken from patent US9932637B2, “Genetic polymorphisms associated with cardiovascular disorders and drug response, methods of detection and uses thereof” (CELERA CORPORATION, priority 2003, dated 2018).

Tested on: patients with prior myocardial infarction (CARE study)
Experiment: CARE: risk of cardiovascular disease events associated with pravastatin by CD6 or FCAR genotype (Tables 11, 12)
Format: in vivo, human
Conditions: for RR (relative risk) of RMI associated with Pravastatin: recurrent MI during 5 years follow up; for OR of RMI associated with Pravastatin, Adjusted for Age, Smoking status, Gender / OR of RMI associated with Pravastatin, Adjusted for Age, Smoking status, Gender, hypertension, BMI, diabetes, baseline LDLD and HDL / OR of RMI associated with Pravastatin, Unadjusted: placebo group as reference
Excerpt: In order to identify genetic markers associated with acute coronary events (e.g. MI, stroke, unstable angina, congestive heart failure, etc.) or response to statin treatment for the prevention of coronary events, samples from the Cholesterol and Recurrent Events (CARE) study (a randomized multicentral double-blinded trial on secondary prevention of acute coronary events with pravastatin) (Sacks et al., 1991, Am. J. Cardiol. 68: 1436-1446) were genotyped. A well-documented myocardial infarction (MI) was one of the enrollment criteria for entry into the CARE study. Patients were enrolled in the CARE trial from 80 participating study centers. […] Patients were randomized to receive either 40 mg of pravastatin once daily or a matching placebo. The primary endpoint of the trial was death from coronary heart disease and the median duration of follow-up was 5.0 years (range, 4.0 to 6.2 years). […] Secondary endpoints of other related cardiovascular or metabolic disease events, and changes in clinical variables were also recorded in pravastatin-treated and placebo groups. All individuals included in the study had signed a written informed consent form and the study protocol was approved by the respective Institutional Review Boards (IRBs).
In both studies the individuals homozygous for the minor allele were statistically different from heterozygous and major allele homozygous individuals in the pravastatin treated group vs. the placebo treated group. This SNP was associated with a reduced risk of an adverse coronary event in the CARE and WOSCOPS studies with RR or OR of 0.13 and 0.23 respectively in the two studies. Therefore, SNPs identified as useful for predicting RMI may also be useful for predicting increased risk for developing primary MI.
Therefore, an allele found to be associated with risk for MI, RMI, stroke, or other adverse cardiovascular event, may also be useful for predicting responsiveness to statin treatment. SNPs associated with treatment response to pravastatin may also be predictive of responsiveness of an individual to other statins as a class.

[1] = FCAR hCV7841642 genotype AA + AG

## CC[C@H](C)C(=O)O[C@H]1C[C@H](O)C=C2C=C[C@H](C)[C@H](CC[C@@H](O)C[C@@H](O)CC(=O)O)[C@H]21 [pravastatin]
CD6 hCV2553030, homozygous for the minor allele
  RR or OR of adverse coronary event, pravastatin vs placebo: 0.13
CD6 hCV2553030 genotype Het (TC)
  RR (relative risk) of RMI associated with Pravastatin: 0.76
CD6 hCV2553030 genotype Major hom (CC)
  RR (relative risk) of RMI associated with Pravastatin: 0.8
CD6 hCV2553030 genotype Minor hom (TT)
  RR (relative risk) of RMI associated with Pravastatin: 0.13
CD6 hCV2553030 recessive (TT + CC)ref
  RR (relative risk) of RMI associated with Pravastatin: 0.78
CD6 hCV2553030 recessive (TT)
  RR (relative risk) of RMI associated with Pravastatin: 0.13
[1]
  OR of RMI associated with Pravastatin, Adjusted for Age, Smoking status, Gender: 0.31
  OR of RMI associated with Pravastatin, Adjusted for Age, Smoking status, Gender, hypertension, BMI, diabetes, baseline LDLD and HDL: 0.31
  OR of RMI associated with Pravastatin, Unadjusted: 0.32
FCAR hCV7841642 genotype GG
  OR of RMI associated with Pravastatin, Adjusted for Age, Smoking status, Gender: 0.79
  OR of RMI associated with Pravastatin, Adjusted for Age, Smoking status, Gender, hypertension, BMI, diabetes, baseline LDLD and HDL: 0.79
  OR of RMI associated with Pravastatin, Unadjusted: 0.81
